Results reported in US5416222A, “3-pyrrolidine methanamines wherein the alpha-carbon is substituted by 1 or 2 lower alkyl groups which are intermediates for pyridone-carboxylic acid derivatives” (Daiichi Seiyaku Co., Ltd., priority 1985, dated 1995).
In brackets after ≈: the same amount, converted by molar mass.

How the values were obtained:
E. coli, NIHJ = assay: antimicrobial activity, MIC, standard process of Japan Society of Chemotherapy; type: cell-based; conditions: for MIC: Escherichia coli, read-out: minimum growth inhibitory concentration (MIC)
Procedure: (§1) The antimicrobial activities of the compounds of the present invention were determined according to a standard process designated by the Japan Society of Chemotherapy and the minimum growth inhibitory concentrations (MIC) (μg/ml) the compounds were determined.

Pr. mirabilis, IF03849 = assay: as above; type: cell-based; conditions: for MIC: Proteus mirabilis, IF03849, Pr. mirabilis, read-out: minimum growth inhibitory concentration (MIC)
Procedure: as §1

Pr. vulgaris, 3167 = assay: as above; type: cell-based; conditions: for MIC: Proteus vulgaris, 3167, Pr. vulgaris, read-out: minimum growth inhibitory concentration (MIC)
Procedure: as §1

Ps. aeruginosa, 2063 = assay: as above; type: cell-based; conditions: for MIC: Pseudomonas aeruginosa, 2063, Ps. aeruginosa, read-out: minimum growth inhibitory concentration (MIC)
Procedure: as §1

Ps. aeruginosa, 2128 = assay: as above; type: cell-based; conditions: for MIC: Pseudomonas aeruginosa, 2128, Ps. aeruginosa, read-out: minimum growth inhibitory concentration (MIC)
Procedure: as §1

Ps. cepacia, IID1340 = assay: as above; type: cell-based; conditions: for MIC: Burkholderia cepacia, IID1340, Ps. cepacia, read-out: minimum growth inhibitory concentration (MIC)
Procedure: as §1

Ps. maltophilia, IID1275 = assay: as above; type: cell-based; conditions: for MIC: Stenotrophomonas maltophilia, IID1275, Ps. maltophilia, read-out: minimum growth inhibitory concentration (MIC)
Procedure: as §1

S. aureus, 209P = assay: as above; type: cell-based; conditions: for MIC: Staphylococcus aureus, read-out: minimum growth inhibitory concentration (MIC)
Procedure: as §1

S. epidermidis, 56500 = assay: as above; type: cell-based; conditions: for MIC: Staphylococcus epidermidis, 56500, S. epidermidis, read-out: minimum growth inhibitory concentration (MIC)
Procedure: as §1

Ser. marcescens, 13001 = assay: as above; type: cell-based; conditions: for MIC: Serratia marcescens, 13001, Ser. marcescens, read-out: minimum growth inhibitory concentration (MIC)
Procedure: as §1

Sh. flexneri, 2a5503 = assay: as above; type: cell-based; conditions: for MIC: Shigella flexneri, read-out: minimum growth inhibitory concentration (MIC)
Procedure: as §1

[1] = test system: Str. faecalis, ATCC 19433; assay: as above; type: cell-based; conditions: for MIC: Enterococcus faecalis, ATCC19433, Str. faecalis, read-out: minimum growth inhibitory concentration (MIC)
Procedure: as §1

Str. pyogenes, G-36 = assay: as above; type: cell-based; conditions: for MIC: Streptococcus pyogenes, G36, Str. pyogenes, read-out: minimum growth inhibitory concentration (MIC)
Procedure: as §1

physchem = type: physicochemical; conditions: water
Procedure: (§2) The water-solubility and acute toxicity of the compounds of the present invention and the comparative compounds, were measured. The results obtained are shown hereunder. The water-solubility was measured by the following method.
(i) Preparation of standard solution
About 400 μg of the sample to be measured was accurately weighed (the weight was defined as W μg), and 0.1N NaOH solution was added thereto to bring the whole volume to 50 ml. The UV absorbance of a given amount of the solution was measured and the measured absorbance was defined as A1.
(ii) Preparation of sample to be measured
Distilled water was added to the sample to be measured (fine powder) in such amount that the sample was not completely dissolved but suspended, and then the suspension was vigorously agitated at room temperature (between 23° and 26° C.) for 30 minutes. Insoluble matter of the sample was removed therefrom by filtration, after which 3 ml sample of the filtrate (satulated aqueous solution of the sample) was taken. 3 ml of 0.2N NaOH solution was added to the filtrate sample to bring the total volume to 6 ml (i.e. the filtrate was diluted to 50% concentration.) To 1 ml of the resulting solution, 0.1N NaOH solution was further added to bring the total volume to 25 ml […]. In this connection, degree of dilution was occasionally changed, depending on degree of UV absorbance. The UV absorbance of the given amount of the solution was measured and the resulting absorbance was defined to as A2. Where the number of dilution is N, water-solubility (s) is obtained from the following equation: [formula]

mouse = assay: acute toxicity to mouse; type: in vivo; conditions: 200 mg/kg; i.v.
Procedure: as §2
*200 mg/kg; i.v, (deaths/total number) As is obvious from the above

[2] = absorption after oral administration to rats; type: in vivo; conditions: rat, 20 mg/kg; for half-life: serum half life, 0.693/Kel; for Cmax / AUC(0-t) at 6 h: serum; for Cmax: 5 rats per group; for AUC(0-t) at 6 h: zero to 6 h, trapezoidal method, read-out: AUC0-6H
Procedure: The compounds of the present invention and the comparative compound were orally given to rats (one group: 5 rats) at a dose of 20 mg/kg to measure the oral absorption of the compounds. The concentration of the compound in the blood of the rat was measured at 15 minutes, 30 minutes, and 1, 2, 3, 4, and 6 hours after administration.
Serum half lives (T1/2) were calculated as 0.693/Kel, where Kel is the elimination rate constant determined by linear regression analysis of the natural logarithm of serum concentration-time data. The area under the serum concentration-versus time curve from zero to 6 h (AUC0-6H) was calculated by the trapezoidal method, The results obtained are as follows: […]

[3] = in words, prior art discussion; cited from earlier work
[4] = test system: Gram-negative microorganisms; conditions: in words, prior art discussion; cited from earlier work

Row | SMILES | solubility at 0.5 h (physchem) | Acute toxicity to mouse (mouse) | half-life [2] | Cmax [2] | AUC(0-t) at 6 h [2] | MIC (E. coli, NIHJ) | MIC (Pr. mirabilis, IF03849) | MIC (Pr. vulgaris, 3167) | MIC (Ps. aeruginosa, 2063) | MIC (Ps. aeruginosa, 2128) | MIC (Ps. cepacia, IID1340) | MIC (Ps. maltophilia, IID1275) | MIC (S. aureus, 209P) | MIC (S. epidermidis, 56500) | MIC (Ser. marcescens, 13001) | MIC (Sh. flexneri, 2a5503) | MIC [1] | MIC (Str. pyogenes, G-36) | water-solubility (prior art compounds) [3] | antimicrobial activity against Gram-negative microorganisms (prior art compounds) [4] | further results
1 | CNC(C)C1CCN(c2c(F)cc3c(=O)c(C(=O)O)cn(C4CC4)c3c2F)C1 (single isomer, unassigned) [Example 7] | 710 µg/mL (≈ 1810 µM) | 1/5 | 2.01 h | 2210 ng/mL | 6310 ng·h/mL |  |  |  |  |  |  |  |  |  |  |  |  |  |  |  | minimum growth inhibitory concentration (MIC) (E. coli, NIHJ): ≤ 0.05 µg/mL; minimum growth inhibitory concentration (MIC) (Pr. mirabilis, IF03849; Pr. mirabilis): ≤ 0.05 µg/mL; minimum growth inhibitory concentration (MIC) (Pr. vulgaris, 3167; Pr. vulgaris): ≤ 0.05 µg/mL; minimum growth inhibitory concentration (MIC) (Ps. aeruginosa, 2063; Ps. aeruginosa): 0.20 µg/mL; minimum growth inhibitory concentration (MIC) (Ps. aeruginosa, 2128; Ps. aeruginosa): 0.10 µg/mL; minimum growth inhibitory concentration (MIC) (Ps. cepacia, IID1340; Ps. cepacia): 0.78 µg/mL; minimum growth inhibitory concentration (MIC) (Ps. maltophilia, IID1275; Ps. maltophilia): 0.20 µg/mL; minimum growth inhibitory concentration (MIC) (S. aureus, 209P): ≤ 0.05 µg/mL; minimum growth inhibitory concentration (MIC) (S. epidermidis, 56500; S. epidermidis): ≤ 0.05 µg/mL; minimum growth inhibitory concentration (MIC) (Ser. marcescens, 13001; Ser. marcescens): 0.10 µg/mL; minimum growth inhibitory concentration (MIC) (Sh. flexneri, 2a5503): ≤ 0.05 µg/mL; minimum growth inhibitory concentration (MIC) ([1]; Str. faecalis): ≤ 0.05 µg/mL; minimum growth inhibitory concentration (MIC) (Str. pyogenes, G-36; Str. pyogenes): ≤ 0.05 µg/mL
2 | CCNCC1CCN(c2c(F)cc3c(=O)c(C(=O)O)cn(C4CC4)c3c2F)C1 (stereo not drawn) [Compound A, 1-cyclopropyl-6,8-difluoro-(3-ethylaminomethyl-1-pyrolidinyl)-1,4-dihydro-4-oxoquinoline-3-carboxylic acid, reference compound] | 40 µg/mL (≈ 102 µM) | 3/5 |  |  |  | ≤ 0.05 µg/mL | ≤ 0.05 µg/mL | 0.1 µg/mL (≈ 0.255 µM) | 0.39 µg/mL (≈ 0.996 µM) | 0.2 µg/mL (≈ 0.511 µM) | 0.78 µg/mL (≈ 1.99 µM) | 0.39 µg/mL (≈ 0.996 µM) | ≤ 0.05 µg/mL | ≤ 0.05 µg/mL | 0.1 µg/mL (≈ 0.255 µM) | ≤ 0.05 µg/mL | 0.1 µg/mL (≈ 0.255 µM) | 0.1 µg/mL (≈ 0.255 µM) | extremely low water-solubility | strong antimicrobial activity | 
3 | CNCC1CCN(c2c(F)cc3c(=O)c(C(=O)O)cn(C4CC4)c3c2F)C1 (stereo not drawn) [Compound B, 1-cyclopropyl-6,8-difluoro-(3-methylaminomethyl-1-pyrolidinyl)-1,4-dihydro-4-oxoquinoline-3-carboxylic acid, reference compound] | 80 µg/mL (≈ 212 µM) | 2/5 | 1.55 h | 1370 ng/mL | 3610 ng·h/mL | ≤ 0.05 µg/mL | ≤ 0.05 µg/mL | ≤ 0.05 µg/mL | 0.2 µg/mL (≈ 0.53 µM) | 0.2 µg/mL (≈ 0.53 µM) | 1.56 µg/mL (≈ 4.13 µM) | 0.2 µg/mL (≈ 0.53 µM) | ≤ 0.05 µg/mL |  | ≤ 0.05 µg/mL | 0.1 µg/mL (≈ 0.265 µM) | 0.1 µg/mL (≈ 0.265 µM) | 0.1 µg/mL (≈ 0.265 µM) | extremely low water-solubility | strong antimicrobial activity | 
4 | CC(C)(N)C1CCN(c2c(F)cc3c(=O)c(C(=O)O)cn(C4CC4)c3c2F)C1 (stereo not drawn) [Example 11, 7-[3-(1-Amino-1-methyl)ethyl-1-pyrrolidinyl]-1-cyclopropyl-6,8-difluoro-1,4-dihydro-4-oxoquinoline-3-carboxylic acid] | 200 µg/mL (≈ 511 µM) | 0/5 | 2.27 h | 2100 ng/mL | 6430 ng·h/mL | ≤ 0.05 µg/mL | 0.1 µg/mL (≈ 0.255 µM) | ≤ 0.05 µg/mL | 0.78 µg/mL (≈ 1.99 µM) | 0.2 µg/mL (≈ 0.511 µM) | 0.78 µg/mL (≈ 1.99 µM) | 0.1 µg/mL (≈ 0.255 µM) | ≤ 0.05 µg/mL | ≤ 0.05 µg/mL | 0.1 µg/mL (≈ 0.255 µM) | ≤ 0.05 µg/mL | ≤ 0.05 µg/mL | ≤ 0.05 µg/mL |  |  | 
5 | CC(C)(N)C1CCN(c2nc3c(cc2F)c(=O)c(C(=O)O)cn3C2CC2)C1 (stereo not drawn) [Example 13, 7-[3-(1-Amino-1-methyl)ethyl-1-pyrrolidinyl]-1-cyclo-propyl-6-difluoro-1,4-dihydro-4-oxo-1,8-naphthyridine-3-carboxylic acid] | 2000 µg/mL (≈ 5340 µM) | 1/5 | 2.41 h | 2140 ng/mL | 7950 ng·h/mL | ≤ 0.05 µg/mL | 0.39 µg/mL (≈ 1.04 µM) | 0.1 µg/mL (≈ 0.267 µM) | 0.39 µg/mL (≈ 1.04 µM) | 0.2 µg/mL (≈ 0.534 µM) | 0.78 µg/mL (≈ 2.08 µM) | 0.2 µg/mL (≈ 0.534 µM) | ≤ 0.05 µg/mL | ≤ 0.05 µg/mL | 0.2 µg/mL (≈ 0.534 µM) | ≤ 0.05 µg/mL | 0.2 µg/mL (≈ 0.534 µM) | 0.1 µg/mL (≈ 0.267 µM) |  |  | 
